Test results from patent US11369609B2, “Small molecule Wnt inhibitor as treatment for dyslipidemia” (Yale University, priority 2019, dated 2022).

Key:
kidney endothelial cells = assay: Fatty acid oxidation (14CO2 release from [14C]palmitate) in isolated kidney endothelial cells; type: in vivo, mice; settings: for FAO, as measured by 14CO2 release: diabetic CD-1 mice treated for 4 weeks
Protocol: Endothelial cells from the kidneys of non-diabetic and diabetic mice were isolated using a standardized kit (Miltenyl Biotech, USA) by following the manufacturer's instructions. Briefly, kidneys were isolated and minced into small pieces. Using a series of enzymatic reactions by treating the tissue with trypsin and Collagenase type I solution, a single cell suspension was created. The pellet was dissolved with CD31 magnetic beads and the CD31-labelled cells were separated on a magnetic separator. The cells were further purified on a column. Cell number was counted by hemocytometer and cells were plated on 0.1% gelatin coated Petri dishes.
Cultured isolated kidney endothelial cells were incubated with medium containing 0.75 mmol/L palmitate (conjugated to 2% free fatty acid-free BSA/[^14C] palmitate at 2 μCi/mL) for 2 h. One mL of the culture medium was transferred to a sealable tube, the cap of which housed a Whatman filter paper disc. ^14CO2 trapped in the media was then released by acidification of media using 60% perchloric acid. Radioactivity that had become adsorbed onto the filter discs was then quantified by liquid scintillation counting.
It is increasingly recognized that defects in central metabolism contribute to kidney fibrosis (69, 76). Defective FA metabolism in EC leads to EndMT events (77). To investigate whether FA metabolism was deranged in the model, radiolabeled [^14C]palmitate uptake experiments were performed in isolated EC from mouse kidneys. FA uptake was higher in isolated EC from the diabetic kidneys of the more fibrotic strain (diabetic CD-1) when compared to kidney EC from the less-fibrotic strain (diabetic C57BL/6). […] FA oxidation (FAO) was also assessed by measuring the ^14CO2 release from radiolabeled [^14C]palmitate in cultured EC isolated from kidneys. […] In the next set of experiments, diabetic CD-1 mice were treated with the FA synthase inhibitor C75, the FAO inhibitor etomoxir, the PPARα agonist fenofibrate, and the cholesterol-lowering drug simvastatin for 4 weeks. […] (FIG. 23A). Fenofibrate and C75 restored the level of GR protein in CD31 positive cells, whereas etomoxir and simvastatin suppressed it (FIG. 23B).

diabetic CD-1 mice = assay: FA metabolism modulators and simvastatin in diabetic CD-1 mice (renal fibrosis); type: in vivo; settings: for fibrogenic phenotype / level of fibrosis in kidneys / fibronectin mRNA level in diabetic kidneys / level of GR protein in CD31 positive cells / αSMA mRNA level in diabetic kidneys: diabetic CD-1 mice treated for 4 weeks; for CPT1a level / β-catenin level: diabetic CD-1 mice, kidney immunohistochemistry
Protocol: (§1) All experiments were performed in accordance with the National Institute of Health (NIH) Guidelines for the Care of Laboratory Animals. Mice lacking the endothelial glucocorticoid receptor (GR) (known as GR^ECKO) and those lacking this receptor on the Apo E null background (DKO) were generated as previously described (6). The induction of diabetes in CD-1 mice and C57B/L6 mice was performed according to previously established experimental protocols (38-42). Briefly, diabetes was induced in 10-week-old GR^ECKO mice with five consecutive intraperitoneal (IP) doses of streptozotocin (STZ) 50 mg/kg in 10 mmol/L citrate buffer (pH 4.5). Wnt inhibitor (LGK974) was provided to GR^ECKO and control littermate at 5 mg/kg at a frequency of six doses per week for 8 weeks (43). Etomoxir (20 mg/kg) and c75 (15 mg/kg) were dosed (ip) three times per week for 3 weeks in the GR^ECKO and control littermate. A single IP dose of 200 mg/kg STZ was used to induce diabetes in CD-1 mice. Fenofibrate (100 mg/kg), simvastatin (40 mg/kg), were dosed orally for 4 weeks in diabetic CD-1 mice. All mice were sacrificed after 4 weeks of treatment and tissues and blood were harvested. Urine albumin levels were assayed using a Mouse Albumin ELISA Kit (Exocell, Philadelphia, Pa.).
(§2) A point-counting method was utilized to evaluate the relative area of the mesangial matrix. PAS-stained glomeruli from each mouse were analyzed using a digital microscope screen grid containing 540 (27×20) points. Masson's trichrome-stained images were evaluated by ImageJ software, and the fibrotic areas were estimated.
(§3) Deparaffinized sections were incubated with picrosirius red solution for 1 hour at room temperature. The slides were washed twice with acetic acid solution for 30 seconds per wash. The slides were then dehydrated in absolute alcohol three times, cleared in xylene, and mounted with a synthetic resin. Sirius red staining was analyzed using ImageJ software, and fibrotic areas were quantified.
(§4) Paraffin-embedded kidney sections (5 μm thick) were deparaffinized and rehydrated (2 min in xylene, four times; 1 min in 100% ethanol, twice; 1 min in 95% ethanol; 45 s in 70% ethanol; and 1 min in distilled water), and the antigen was retrieved in a 10 mM citrate buffer pH 6 at 98° C. for 60 min. To block the endogenous peroxidase, all sections were incubated in 0.3% hydrogen peroxide for 10 min. The immunohistochemistry was performed using a Vectastain ABC Kit (Vector Laboratories, Burlingame, Calif.). Mouse anti-[…] antibody (1:100) and CPT1a (Abnova; H00001374-DO1P; 1:100) antibody was used. In the negative controls, the primary antibody was omitted and replaced with the blocking solution.
Frozen kidney sections (5 μm) were used for immunofluorescence; double positive labeling with CD31/αSMA, CD31/TGFβR1 and E-cadherin/αSMA was measured. Briefly, frozen sections were dried and placed in acetone for 10 min at −30° C. Once the sections were dried, they were washed twice in phosphate-buffered saline (PBS) for 5 min and then blocked in 2% bovine serum albumin/PBS for 30 min at room temperature. Thereafter, the sections were incubated in primary antibody (1:100) for 1 hour and washed in PBS (5 min) three times. Next, the sections were incubated with the secondary antibodies for 30 min, washed with PBS three times (5 min each), and mounted with mounting medium with DAPI (Vector Laboratories, Burlingame, Calif.). The immune-labeled sections were analyzed by fluorescence microscopy. For each mouse, original magnification of ×400 pictures were obtained from six different areas, and quantification was performed.
Total RNA was isolated using standard Trizol protocol. RNA was reverse transcribed using the iScript cDNA Synthesis kit (Bio-Rad) and qPCR was performed on a Bio-Rad C1000 Touch thermal cycler using the resultant cDNA, as well as qPCR Master mix and gene specific primers.
It is increasingly recognized that defects in central metabolism contribute to kidney fibrosis (69, 76). […]

[1] = system: diabetic GR^ECKO mice and control littermates; assay: Etomoxir and C75 in diabetic control littermates and diabetic GR^ECKO mice; type: in vivo; settings: for body weight: diabetic control littermates and GR^ECKO mice, ip three times per week for 3 weeks
Protocol: as §1, §2, §3, §4
Etomoxir and C75 were also tested in the diabetic control littermates and diabetic GR^ECKO mice. […] (FIG. 17D-E).

[2] = system: canonical Wnt signaling pathway; assay: qPCR of canonical Wnt-dependent genes in Wnt3a-treated MLECs; type: cell-based, mouse
Protocol: ChIP DNA or total RNA was used for qPCR. Total RNA was isolated using standard Trizol protocol. RNA was reverse transcribed using the iScript cDNA Synthesis kit (Bio-Rad) and qPCR was performed on a Bio-Rad C1000 Touch thermal cycler using the resultant cDNA, qPCR master mix and gene specific primers. The following primers were used: […]
MLECS were cultured and starved for 4 hours in 0.5% FBS. Cells were treated for 4 hours with Wnt3a (200 ng/ml).
To further examine the specificity of GR in this interaction, a similar experiment in GR siRNA-treated cells was performed.

[3] = Wnt3a-conditioned media 6 hours, then DEX 100 nM 1 hour

Compound | FAO, as measured by 14CO2 release (kidney endothelial cells) | FAO in kidney EC (kidney endothelial cells; diabetic GR^ECKO mice) | FAO in kidney EC (kidney endothelial cells; diabetic control littermates) | fibrogenic phenotype / level of fibrosis in kidneys (diabetic CD-1 mice) | fibronectin mRNA level in diabetic kidneys (diabetic CD-1 mice) | level of GR protein in CD31 positive cells (diabetic CD-1 mice) | αSMA mRNA level in diabetic kidneys (diabetic CD-1 mice) | CPT1a level (diabetic CD-1 mice) | β-catenin level (diabetic CD-1 mice) | body weight [1] | CPT1a level in kidneys ([1]; diabetic control mice) | level of β-catenin in kidneys ([1]; diabetic control mice) | renal fibrogenic phenotype ([1]; diabetic control mice) | other results
CCOC(=O)[C@@]1(CCCCCCOc2ccc(Cl)cc2)CO1 [etomoxir] | significant suppression | significant suppression in FAO | significant suppression in FAO | exacerbated the fibrosis | upregulated | suppressed | upregulated | significant suppression | induced | no significant differences | suppressed the CPT1a level | increased the expression level of β-catenin | accelerated the renal fibrogenic phenotype | CPT1a level in kidneys ([1]; diabetic GR^ECKO mice): suppressed the CPT1a level; level of β-catenin in kidneys ([1]; diabetic GR^ECKO mice): increased the expression level of β-catenin; renal fibrogenic phenotype ([1]; diabetic GR^ECKO mice): accelerated the renal fibrogenic phenotype
Wnt3a | – | – | – | – | – | – | – | – | – | – | – | – | – | sox17 expression, effect of Wnt3a in GR siRNA-treated cells ([2]; Wnt3a 200 ng/ml 4 hours, GR knockdown): augmented; sox17 expression, effect of Wnt3a ([2]; Wnt3a-conditioned media, MLECs): induced
C[C@@H]1C[C@H]2[C@@H]3CCC4=CC(=O)C=C[C@]4(C)[C@@]3(F)[C@@H](O)C[C@]2(C)[C@@]1(O)C(=O)COP(=O)(O)O [DEX, Dexamethasone phosphate] | – | – | – | – | – | – | – | – | – | – | – | – | – | sox17 expression, control siRNA vs GR siRNA cells ([2]; Wnt3a 200 ng/ml 4 hours, DEX 100 nM 1 hour): suppressed sox17 expression to a much greater extent in control-siRNA treated cells than in GR siRNA-treated cells; axin2 expression [2, 3]: a similar pattern was observed; sox17 expression [2, 3]: suppressed expression
C=C1C(=O)OC(CCCCCCCC)C1C(=O)O (stereo not shown) [C75] | increased the level of FAO | unable to rescue the level of FAO | restored FAO | ameliorated the fibrogenic phenotype | downregulated | restored | downregulated | induced the level of CPT1a | suppressed the level of β-catenin | no significant differences | restored CPT1a | completely diminished the level of β-catenin | clearly abolished the renal fibrogenic phenotype | –
